Laboratory results: the SangsterLogP compilation

How the values were obtained:
[1] = method code SF-AS, from DOI: 10.2307/3575799, PMID: 7199747; details: pH 7.4
[2] = method code SF, from DOI: 10.2307/3575799, PMID: 7199747; details: pH 7.4

Row | logD [1] | logD [2] | SMILES
1 | -0.96 |  | CC(O)CN(CC(C)O)C(=O)Cn1ccnc1[N+](=O)[O-] (stereo not given)
2 |  | -1.66 | O=COCCN(CCOC=O)C(=O)Cn1ccnc1[N+](=O)[O-]
3 |  | -1.64 | CC(C(=O)NCC(O)CO)n1ccnc1[N+](=O)[O-] (stereo not given)
4 |  | 0.44 | CCC(=O)OCCN(CCOC(=O)CC)C(=O)Cn1ccnc1[N+](=O)[O-]
5 |  | -1.16 | CC(C(=O)NCCO)n1ccnc1[N+](=O)[O-] (stereo not given)
6 |  | -1.77 | O=C(Cn1ccnc1[N+](=O)[O-])NC(CO)(CO)CO
7 |  | -1.59 | O=C(Cn1ccnc1[N+](=O)[O-])N(CCO)CCO
8 | -0.64 |  | CC(=O)OCCN(CCOC(C)=O)C(=O)Cn1ccnc1[N+](=O)[O-]
9 |  | -1.22 | NC(=O)Cn1ccnc1[N+](=O)[O-]
10 | -0.77 |  | CC(=O)OCC(CNC(=O)Cn1ccnc1[N+](=O)[O-])OC(C)=O (stereo not given)
